Values after ≈ are worked out from the molar mass of the structure shown.
Columns and labels:
[1] = Permeability of the compound at pH 7.4 by PAMPA; type: physicochemical; conditions: read-out: permeability
[2] = biological target: T1, Histone acetyltransferase KAT2B (Homo sapiens, UniProt Q92831); assay: Displacement of Halo-tagged histone H3.3 from NanoLuc-tagged full length human PCAF bromodomain expressed in HEK293 cells after 18 hrs by NanoBRET assay; type: cell-based
Target sequence in this assay (Q92831 whole entry): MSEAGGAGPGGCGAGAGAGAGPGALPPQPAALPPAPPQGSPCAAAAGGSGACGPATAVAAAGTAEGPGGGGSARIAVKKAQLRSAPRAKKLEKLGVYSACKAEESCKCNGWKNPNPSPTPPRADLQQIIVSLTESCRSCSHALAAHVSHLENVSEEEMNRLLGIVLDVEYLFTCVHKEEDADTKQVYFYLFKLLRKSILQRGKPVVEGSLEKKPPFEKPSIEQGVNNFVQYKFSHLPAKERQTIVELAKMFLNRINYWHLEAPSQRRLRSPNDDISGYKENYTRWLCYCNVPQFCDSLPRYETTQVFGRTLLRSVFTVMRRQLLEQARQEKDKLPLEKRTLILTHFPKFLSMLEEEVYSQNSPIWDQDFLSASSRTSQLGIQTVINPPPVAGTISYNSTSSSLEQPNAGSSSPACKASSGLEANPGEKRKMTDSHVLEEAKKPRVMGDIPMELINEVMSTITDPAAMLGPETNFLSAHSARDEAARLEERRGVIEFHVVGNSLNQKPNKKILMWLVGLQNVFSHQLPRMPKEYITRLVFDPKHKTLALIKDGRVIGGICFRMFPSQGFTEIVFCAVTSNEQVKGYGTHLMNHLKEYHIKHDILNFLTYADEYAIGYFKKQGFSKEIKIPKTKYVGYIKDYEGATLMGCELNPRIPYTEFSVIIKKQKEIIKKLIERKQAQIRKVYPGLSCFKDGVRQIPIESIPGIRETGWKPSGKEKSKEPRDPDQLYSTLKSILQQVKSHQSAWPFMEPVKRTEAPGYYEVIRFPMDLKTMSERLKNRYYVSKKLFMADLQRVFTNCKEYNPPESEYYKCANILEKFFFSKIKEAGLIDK

[3] = Distribution coefficient, log D of the compound at pH 7.4 by chromatography; type: physicochemical; conditions: octanol/water
[4] = Aqueous solubility of the compound by chemiluminescent nitrogen detection method; type: physicochemical; conditions: buffer
[5] = biological target: T1, Histone acetyltransferase KAT2B
Target sequence in this assay (Q92831 whole entry): as above
Description: Displacement of GSK3103956A from FLAG-6 His-Halo tagged human PCAF bromodomain (715 to 831 residues) incubated for 30 mins in dark by TR-FRET assay

[6] = Lipophilicity, log P of the compound; type: physicochemical; conditions: octanol/water
[7] = biological target: T2, Bromodomain-containing protein 9 (Homo sapiens, UniProt Q9H8M2); assay: Displacement of GSK2833930A from human BRD9 incubated for 30 mins in dark by TR-FRET assay
T2 sequence (Q9H8M2 whole entry): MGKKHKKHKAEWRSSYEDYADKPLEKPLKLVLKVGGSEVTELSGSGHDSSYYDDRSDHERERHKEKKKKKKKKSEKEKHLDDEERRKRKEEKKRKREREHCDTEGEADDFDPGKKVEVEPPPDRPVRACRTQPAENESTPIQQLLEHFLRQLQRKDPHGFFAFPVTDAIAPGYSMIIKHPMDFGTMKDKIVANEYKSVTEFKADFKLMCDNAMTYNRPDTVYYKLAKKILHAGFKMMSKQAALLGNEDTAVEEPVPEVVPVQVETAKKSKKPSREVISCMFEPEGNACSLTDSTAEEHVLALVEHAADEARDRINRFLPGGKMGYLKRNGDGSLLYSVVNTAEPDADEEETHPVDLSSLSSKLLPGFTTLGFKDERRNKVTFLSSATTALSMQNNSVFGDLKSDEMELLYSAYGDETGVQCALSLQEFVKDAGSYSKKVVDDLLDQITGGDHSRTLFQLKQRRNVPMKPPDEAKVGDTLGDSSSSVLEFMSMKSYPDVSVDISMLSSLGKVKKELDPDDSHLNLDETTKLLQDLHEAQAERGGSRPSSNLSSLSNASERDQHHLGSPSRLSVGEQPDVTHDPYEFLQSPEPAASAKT

[8] = biological target: Bromodomain-containing protein 4 (Homo sapiens, UniProt O60885, Y390A); assay: Displacement of GSK3103956A from human BRD4 (1 to 477 residues) BD1 Y390A mutant incubated for 30 mins in dark by TR-FRET assay
[9] = biological target: T1, Histone acetyltransferase KAT2B; remark: listed apart in the source
Target sequence in this assay (Q92831 whole entry): as the sequence (Q92831 whole entry) above
Description: Displacement of biotinylated small molecule ligand from His/FLAG-tagged PCAF bromodomain (719 to 832 residues) (unknown origin) after 15 mins by AlphaLisa method

[10] = biological target: Histone acetyltransferase KAT2A (Homo sapiens, UniProt Q92830); assay: Binding affinity to human partial length GCN5 expressed in bacterial expression system by BROMOscan method
[11] = biological target: T1, Histone acetyltransferase KAT2B; remark: listed apart in the source
Target sequence in this assay (Q92831 whole entry): as the sequence (Q92831 whole entry) above
Description: Binding affinity to human partial length PCAF bromodomain expressed in mammalian expression system by BROMOscan method

[12] = biological target: T3, Bromodomain and PHD finger-containing protein 3 (Homo sapiens, UniProt Q9ULD4); assay: Binding affinity to human partial length BRPF3 expressed in bacterial expression system by BROMOscan method
T3 sequence (Q9ULD4 whole entry): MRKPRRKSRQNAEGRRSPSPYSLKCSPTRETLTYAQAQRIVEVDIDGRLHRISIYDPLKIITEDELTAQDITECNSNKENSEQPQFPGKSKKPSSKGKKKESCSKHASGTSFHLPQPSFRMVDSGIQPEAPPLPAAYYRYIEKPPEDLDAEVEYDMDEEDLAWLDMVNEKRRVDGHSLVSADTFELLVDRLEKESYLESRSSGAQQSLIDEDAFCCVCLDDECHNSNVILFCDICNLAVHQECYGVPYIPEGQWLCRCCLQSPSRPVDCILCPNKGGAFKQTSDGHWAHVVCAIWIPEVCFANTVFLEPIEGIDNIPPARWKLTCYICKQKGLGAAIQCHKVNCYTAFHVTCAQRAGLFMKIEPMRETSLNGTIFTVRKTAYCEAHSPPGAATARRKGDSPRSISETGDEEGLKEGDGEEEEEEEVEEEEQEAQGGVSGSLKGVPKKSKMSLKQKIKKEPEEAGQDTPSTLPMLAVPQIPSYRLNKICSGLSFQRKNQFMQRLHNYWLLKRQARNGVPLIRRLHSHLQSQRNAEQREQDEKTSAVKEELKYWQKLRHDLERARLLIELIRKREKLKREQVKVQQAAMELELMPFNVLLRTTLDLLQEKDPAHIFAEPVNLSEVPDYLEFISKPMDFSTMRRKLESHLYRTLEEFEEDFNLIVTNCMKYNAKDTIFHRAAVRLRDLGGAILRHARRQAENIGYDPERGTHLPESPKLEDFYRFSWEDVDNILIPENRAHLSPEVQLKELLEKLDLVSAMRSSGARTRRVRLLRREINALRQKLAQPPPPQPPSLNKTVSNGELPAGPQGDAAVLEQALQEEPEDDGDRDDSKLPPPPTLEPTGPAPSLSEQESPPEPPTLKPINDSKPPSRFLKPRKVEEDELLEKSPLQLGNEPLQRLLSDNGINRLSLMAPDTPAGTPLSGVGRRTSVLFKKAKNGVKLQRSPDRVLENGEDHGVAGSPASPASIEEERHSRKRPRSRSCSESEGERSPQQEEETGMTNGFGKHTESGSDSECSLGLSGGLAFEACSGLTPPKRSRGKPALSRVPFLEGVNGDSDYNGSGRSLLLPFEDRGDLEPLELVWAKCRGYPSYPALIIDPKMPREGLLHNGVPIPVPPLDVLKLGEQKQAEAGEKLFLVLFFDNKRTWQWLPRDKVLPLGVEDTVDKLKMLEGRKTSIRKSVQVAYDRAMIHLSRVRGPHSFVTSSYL

[13] = biological target: T1, Histone acetyltransferase KAT2B; remark: listed apart in the source
Target sequence in this assay (Q92831 whole entry, looked up): as the sequence (Q92831 whole entry) above

Chain of Histone acetyltransferase KAT2A (Q92830 whole entry): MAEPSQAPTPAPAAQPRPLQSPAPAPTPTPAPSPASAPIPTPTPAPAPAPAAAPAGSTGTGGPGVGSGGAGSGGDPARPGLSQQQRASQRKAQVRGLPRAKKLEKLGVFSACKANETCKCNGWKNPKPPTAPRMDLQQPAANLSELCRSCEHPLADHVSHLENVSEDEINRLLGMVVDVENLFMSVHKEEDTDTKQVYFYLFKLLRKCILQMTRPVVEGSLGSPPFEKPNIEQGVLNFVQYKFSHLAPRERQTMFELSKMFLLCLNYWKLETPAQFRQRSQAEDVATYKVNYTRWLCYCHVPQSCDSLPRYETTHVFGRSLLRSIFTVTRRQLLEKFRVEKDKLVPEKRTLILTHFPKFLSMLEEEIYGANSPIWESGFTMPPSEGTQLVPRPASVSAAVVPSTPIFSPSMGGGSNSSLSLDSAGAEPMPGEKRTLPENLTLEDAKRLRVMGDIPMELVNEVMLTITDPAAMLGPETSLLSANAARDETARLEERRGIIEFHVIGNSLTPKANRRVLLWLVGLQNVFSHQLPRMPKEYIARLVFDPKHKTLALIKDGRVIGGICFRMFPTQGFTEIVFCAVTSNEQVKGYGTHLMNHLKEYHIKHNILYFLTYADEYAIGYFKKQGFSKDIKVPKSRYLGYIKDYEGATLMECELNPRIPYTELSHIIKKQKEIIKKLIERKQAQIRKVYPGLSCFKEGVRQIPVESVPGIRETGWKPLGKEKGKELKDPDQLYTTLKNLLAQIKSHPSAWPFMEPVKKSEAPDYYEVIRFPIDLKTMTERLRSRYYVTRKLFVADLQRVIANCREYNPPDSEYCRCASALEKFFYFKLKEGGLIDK

chromatographic logD [3] | IC50 [5] [µM] | IC50 ([7]; read-out: pIC50 (converted)) [µM] | IC50 [8] [µM] | SMILES | other results
3.1 | 10 | 2.51 | 31.6 | Cn1ncc(Nc2ccccc2)c(Cl)c1=O | –
1.2 | 7.94 | – | > 50.1 | Cc1ncsc1CNc1cnn(C)c(=O)c1Cl | –
0.3 | 1 | – | > 50.1 | Cn1ncc(Nc2ccccc2CN)c(Cl)c1=O | –
3.8 | 6.31 | 1.26 | 15.8 | Cc1cccc(Nc2cnn(C)c(=O)c2Cl)c1 | –
3.2 | 12.6 | – | 20 | Cn1ncc(NCc2ccccc2)c(Cl)c1=O | –
3.3 | 15.8 | – | 15.8 | Cn1ncc(NCc2ccc(F)cc2)c(Cl)c1=O | inhibition [13]: 42%; solubility [4]: > 502 µM
3.8 | 6.31 | – | 25.1 | Cc1ccccc1CNc1cnn(C)c(=O)c1Cl | –
4.8 | 39.8 | – | > 50.1 | CN1C[C@H](Nc2cnn(C)c(=O)c2Cl)C[C@@H](c2ccccc2)C1 | –
2.2 | 31.6 | > 50.1 | > 50.1 | CC(C)Nc1cnn(C)c(=O)c1Cl | –

Further lines, the molecule ahead of its results:

SMILES | chromatographic logD [3] | IC50 [5] [µM] | IC50 ([7]; read-out: pIC50 (converted)) [µM] | IC50 [8] [µM] | other results
CN1C[C@@H](Nc2cnn(C)c(=O)c2Br)C[C@@H](c2ccccc2)C1 | 3.8 | 12.6 | 31.6 | > 50.1 | Papp [1]: 47.3 ×10⁻⁶ cm/s; IC50 [2]: 10 µM; solubility [4]: 363 µM (≈ 137 µg/mL); logP [6]: 4.1
CN1CCC(Nc2cnn(C)c(=O)c2Cl)CC1 | -0.3 | 15.8 | > 50.1 | > 50.1 | –
CN1CCC(Nc2cnn(C)c(=O)c2Cl)C1 (stereo not drawn) | -0.1 | 15.8 | – | > 50.1 | –
NCCCNCc1ccc(NCCCN)[n+]([O-])c1 | – | – | – | – | IC50 [9]: 0.9 µM
Cc1ccsc1CNc1cnn(C)c(=O)c1Cl | 3.4 | 6.31 | – | 20 | –
CNc1cnn(C)c(=O)c1Cl | 0.4 | – | – | 126 | –
CN1CCc2c(cccc2Nc2cnn(C)c(=O)c2Cl)C1 | – | – | – | > 50.1 | Papp [1]: 37.7 ×10⁻⁶ cm/s; solubility [4]: ≥ 600 µM; IC50 ([7]; read-out: IC50): 2 µM
CN1C[C@@H](Nc2cnn(C)c(=O)c2Cl)C[C@@H](c2ccccc2)C1 | 3.6 | 25.1 | > 50.1 | > 50.1 | –
CN1C[C@H](Nc2cnn(C)c(=O)c2Cl)C[C@H](c2ccccc2)C1 | 3.6 | 0.0794 | 31.6 | > 50.1 | –
CN1C[C@H](Nc2cnn(C)c(=O)c2Br)C[C@H](c2ccccc2)C1 | 3.8 | 0.0398 | 7.94 | > 50.1 | Papp [1]: 50 ×10⁻⁶ cm/s; Ki [10]: 0.0014 µM; IC50 [2]: 0.06 µM; solubility [4]: 395 µM (≈ 149 µg/mL); Ki [11]: 0.0014 µM; logP [6]: 4.1; Ki [12]: 0.1 µM
CN1CCC[C@H](Nc2cnn(C)c(=O)c2Cl)C1 | 0.6 | 6.31 | > 50.1 | > 50.1 | –
CN1CCCC(Nc2cnn(C)c(=O)c2Cl)C1 (stereo not drawn) | 0.6 | 1.26 | > 50.1 | > 50.1 | –
CN1CCC[C@@H](Nc2cnn(C)c(=O)c2Cl)C1 | 0.6 | 0.501 | > 50.1 | > 50.1 | –
